Laboratory results from US8013153B2, “Substituted pyrimidine kinase inhibitors” (Janssen Pharmaceutica, N.V., priority 2006, dated 2011).

Experiments:
[1] = test system: spontaneous intestinal adenoma formation; assay: C57BL/6J-APC Min-mouse model of human adenomatous polyposis coli; format: in vivo, C57BL/6J-Apc min mice; settings: 100 mg/kg orally q.d., versus vehicle-treated group
Procedure: The ability of Compound 50 to inhibit angiogenesis and tumor growth was tested in a spontaneous tumor model. the pre-cancerous polyp formation in the mouse model of human intestinal tumorigenesis.
Transgenic C57BL/6J-Apc min mice heterozygous for a dominant nonsense Apc mutation are highly susceptible to spontaneous intestinal adenoma formation (homozygous mice are not viable). One hundred percent of these animals will develop polyps by 12 weeks of age. This model is widely used for studying prevention of intestinal adenoma formation and is well described in the literature (Yang K, Edelmann W, Fan K, et. al. A mouse model of human familial adenomatous polyposis. J Exp Zool. 1997 15; 277(3):245-54).
Female C57BL/6J-Apc^Min mice (Jackson Laboratory, MN), 5 weeks of age, were housed (up to 10 mice per group) for a minimum of one week. Animals were then sorted into treatment groups based on body weight such that the mean body weight for the animals in each group was approximately the same. Small cohorts of animals (n=6) were sacrificed at day 1, before treatment to get a baseline number of polyps (mean polyp number at beginning of study). […]
Animals in the treated group (n=10) were dosed daily with Compound 50 at 100 mg/kg orally q.d. for one week. […] The intestine of each mouse was excised, perfused, stained (0.01% Trypan Blue) and polyps were counted under 10× magnification.

CDK1:Cyclin-B = biological target: T1, CDK1:Cyclin-B (Homo sapiens, UniProt P06493); assay: CDK1 Screening Assay; format: biochemical
T1 construct: purchased New England Biolabs, Beverly, Mass; 6020; host or cells: insect cells

[2] = test system: HeLa cervical adenocarcinoma; assay: Inhibition of in vitro cell proliferation (HeLa); format: cell-based, human; settings: Homo sapiens, 14C-thymidine incorporation;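 also: cells exposed to compound for 24 h, then labelled 24 h with methyl 14C-thymidine, with uptake into DNA counted by scintillation against DMSO-only control wells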
HER2 cytoplasmic domain = biological target: T2, HER2 cytoplasmic domain (Homo sapiens, UniProt P04626); assay: HER2 Kinase Screening Assay; format: biochemical; settings: > means no observed 50% inhibition at the indicated test concentration; ~ means approximately 50% inhibition at that concentration
T2 construct: polyhistidine (N)

A375 malignant melanoma = assay: Inhibition of in vitro cell proliferation (A375); format: cell-based, human; settings: Homo sapiens, A-375, 14C-thymidine incorporation;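 also: cells plated for 24 h, given compound for 24 h, then labelled with 14C-thymidine for another 24 h, with DMSO-only wells as control and counts read by scintillation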
murine Aurora-A = biological target: T3, murine Aurora-A (Mus musculus, UniProt P97477); assay: Aurora-A Screening Assay; format: biochemical
T3 construct: replaced with the full length protein encoding the murine Aurora-A; made in house; host or cells: sf9 insect cells
T3 sequence (P97477 1-395): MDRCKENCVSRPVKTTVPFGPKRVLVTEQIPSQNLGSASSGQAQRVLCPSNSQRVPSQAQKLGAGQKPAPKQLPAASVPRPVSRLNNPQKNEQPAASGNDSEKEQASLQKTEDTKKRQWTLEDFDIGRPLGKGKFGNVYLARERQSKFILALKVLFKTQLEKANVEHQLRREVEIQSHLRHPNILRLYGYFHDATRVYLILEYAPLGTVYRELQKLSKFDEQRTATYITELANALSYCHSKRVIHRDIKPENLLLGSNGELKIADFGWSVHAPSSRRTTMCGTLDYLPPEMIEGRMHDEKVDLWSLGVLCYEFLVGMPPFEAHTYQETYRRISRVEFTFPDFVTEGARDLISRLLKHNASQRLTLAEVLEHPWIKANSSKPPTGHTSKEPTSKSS

RET cytoplasmic domain = biological target: T4, RET cytoplasmic domain (Homo sapiens, UniProt P07949); assay: RET Kinase Screening Assay; format: biochemical
T4 construct: the RET cytoplasmic domain consisting of the last 492 amino acids of the intracellular domain; histidine tag (N); made in house; host or cells: Hi5 insect cells
T4 sequence (P07949 658-1114 limits assumed): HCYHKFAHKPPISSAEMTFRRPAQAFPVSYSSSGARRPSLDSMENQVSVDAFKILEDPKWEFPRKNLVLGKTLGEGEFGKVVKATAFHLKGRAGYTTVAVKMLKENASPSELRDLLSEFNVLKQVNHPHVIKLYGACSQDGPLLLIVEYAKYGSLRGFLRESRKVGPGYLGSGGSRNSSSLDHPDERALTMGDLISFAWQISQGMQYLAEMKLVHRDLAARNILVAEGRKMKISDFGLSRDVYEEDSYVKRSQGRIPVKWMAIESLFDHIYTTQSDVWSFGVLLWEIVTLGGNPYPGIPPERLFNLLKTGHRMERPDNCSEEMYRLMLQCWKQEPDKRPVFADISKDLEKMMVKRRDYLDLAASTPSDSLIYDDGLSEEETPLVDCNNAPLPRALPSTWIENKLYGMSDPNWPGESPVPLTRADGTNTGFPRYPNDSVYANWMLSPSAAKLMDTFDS

[3] = biological target: T5, rat VEGF-R2 kinase domain (Rattus norvegicus, UniProt O08775); assay: VEGF-R2 Screening Assay; format: biochemical; settings: > means no observed 50% inhibition at the indicated test concentration; ~ means approximately 50% inhibition at that concentration; read-out: IC50 VEGF-R2
T5 construct: amino acids 786-1343 of the rat VEGF-R2 kinase domain; polyhistidine (N)

HCT-116 colon carcinoma = assay: Inhibition of in vitro cell proliferation (HCT116); format: cell-based, human; settings: Homo sapiens, HCT-116, 14C-thymidine incorporation;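 also: cells exposed to compound for 24 h, then 14C-thymidine added for a further 24 h and its uptake into DNA counted by scintillation, DMSO-only wells as control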

T1 sequence (P06493 whole entry): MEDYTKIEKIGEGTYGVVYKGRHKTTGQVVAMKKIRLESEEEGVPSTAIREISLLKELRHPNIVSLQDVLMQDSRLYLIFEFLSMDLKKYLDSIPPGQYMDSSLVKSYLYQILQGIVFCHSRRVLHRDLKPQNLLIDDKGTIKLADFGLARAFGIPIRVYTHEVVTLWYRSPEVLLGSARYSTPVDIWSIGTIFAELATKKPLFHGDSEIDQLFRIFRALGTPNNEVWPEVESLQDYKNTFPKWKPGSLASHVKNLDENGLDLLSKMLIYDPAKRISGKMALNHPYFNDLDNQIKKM
T1 sequence (P14635 whole entry partner): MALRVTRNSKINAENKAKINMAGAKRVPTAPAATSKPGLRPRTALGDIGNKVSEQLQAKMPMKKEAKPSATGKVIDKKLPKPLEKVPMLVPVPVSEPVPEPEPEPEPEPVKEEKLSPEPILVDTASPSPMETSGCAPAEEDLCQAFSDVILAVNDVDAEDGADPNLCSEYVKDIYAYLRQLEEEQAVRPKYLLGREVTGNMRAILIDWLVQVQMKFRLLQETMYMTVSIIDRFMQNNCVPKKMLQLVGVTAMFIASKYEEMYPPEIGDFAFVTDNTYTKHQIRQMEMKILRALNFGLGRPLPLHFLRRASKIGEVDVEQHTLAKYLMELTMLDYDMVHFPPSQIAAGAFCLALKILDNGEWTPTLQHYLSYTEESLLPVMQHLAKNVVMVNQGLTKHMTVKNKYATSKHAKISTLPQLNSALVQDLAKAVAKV
T2 sequence (P04626 676-1255 limits assumed): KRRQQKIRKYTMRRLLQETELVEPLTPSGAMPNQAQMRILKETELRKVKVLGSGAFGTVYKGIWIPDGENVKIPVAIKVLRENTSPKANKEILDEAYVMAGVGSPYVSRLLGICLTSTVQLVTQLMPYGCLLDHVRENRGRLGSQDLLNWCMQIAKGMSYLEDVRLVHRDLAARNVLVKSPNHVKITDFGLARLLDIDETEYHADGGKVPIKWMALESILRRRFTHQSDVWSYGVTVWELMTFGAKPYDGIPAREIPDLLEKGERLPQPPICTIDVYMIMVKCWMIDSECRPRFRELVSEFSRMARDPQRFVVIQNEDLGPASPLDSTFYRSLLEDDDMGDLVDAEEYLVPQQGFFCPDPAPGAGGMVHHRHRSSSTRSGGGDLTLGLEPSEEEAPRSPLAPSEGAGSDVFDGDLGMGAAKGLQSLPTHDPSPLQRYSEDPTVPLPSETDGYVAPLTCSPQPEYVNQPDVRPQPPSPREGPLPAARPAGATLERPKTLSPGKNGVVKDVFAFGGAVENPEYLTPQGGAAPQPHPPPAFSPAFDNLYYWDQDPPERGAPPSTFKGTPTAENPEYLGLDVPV
T5 sequence (O08775 786-1343): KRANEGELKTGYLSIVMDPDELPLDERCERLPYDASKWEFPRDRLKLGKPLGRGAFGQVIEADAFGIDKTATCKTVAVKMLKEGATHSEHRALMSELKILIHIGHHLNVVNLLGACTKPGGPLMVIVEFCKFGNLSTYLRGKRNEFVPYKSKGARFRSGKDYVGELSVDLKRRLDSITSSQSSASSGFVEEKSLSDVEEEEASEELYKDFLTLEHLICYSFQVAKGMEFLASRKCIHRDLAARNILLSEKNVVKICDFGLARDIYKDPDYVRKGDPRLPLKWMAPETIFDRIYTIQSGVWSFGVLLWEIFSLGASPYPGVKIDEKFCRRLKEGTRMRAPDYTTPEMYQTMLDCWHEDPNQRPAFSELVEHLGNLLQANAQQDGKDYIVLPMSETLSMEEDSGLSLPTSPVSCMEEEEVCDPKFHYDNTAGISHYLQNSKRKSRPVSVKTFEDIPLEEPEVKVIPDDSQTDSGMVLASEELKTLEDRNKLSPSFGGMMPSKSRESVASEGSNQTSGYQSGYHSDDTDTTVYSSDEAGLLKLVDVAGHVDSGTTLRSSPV

Row | Compound | body weights at study end [1] | IC50 (CDK1:Cyclin-B) [µM] | IC50 [2] [µM] | IC50 (HER2 cytoplasmic domain) [µM] | IC50 (A375 malignant melanoma) [µM] | IC50 (murine Aurora-A) [µM] | IC50 (RET cytoplasmic domain) [µM] | IC50 [3] [µM] | IC50 (HCT-116 colon carcinoma) [µM]
1 | 1-{4-[6-amino-5-(methoxyimino-methyl)-pyrimidin-4-yloxy]-2-chloro-phenyl}-3-ethyl-urea [Cpd 50] | comparable | – | – | – | – | – | – | – | –
2 | CNc1ncnc(Oc2ccc3[nH]ccc3c2)c1C=NOC [Cpd 3, 4-(1H-indol-5-yloxy)-6-methylamino-pyrimidine-5-carbaldehyde O-methyl-oxime] | – | > 100 | > 10 | > 100 | > 10 | > 100 | > 100 | > 100 | > 10
3 | CON=Cc1c(NOC)ncnc1Oc1ccc2[nH]ccc2c1 [Cpd 4, 4-(1H-indol-5-yloxy)-6-methoxyamino-pyrimidine-5-carbaldehyde O-methyl-oxime] | – | > 100 | > 10 | > 10 | > 10 | > 100 | ~100 | 4.77 | 38.3
4 | Cc1cc2c(F)c(Oc3ncnc(N)c3C=NOCCCN3CCCC3)ccc2[nH]1 [Cpd 18, 4-amino-6-(4-fluoro-2-methyl-1H-indol-5-yloxy)-pyrimidine-5-carbaldehyde O-(3-pyrrolidin-1-yl-propyl)-oxime] | – | > 100 | 4.18 | 1.49 | 2.61 | > 10 | 8.11 | 0.065 | 4.5
5 | Cc1cc2c(F)c(Oc3ncnc(N)c3C=NOCCCN3CCOCC3)ccc2[nH]1 [Cpd 19, 4-amino-6-(4-fluoro-2-methyl-1H-indol-5-yloxy)-pyrimidine-5-carbaldehyde O-(3-morpholin-4-yl-propyl)-oxime] | – | > 100 | 4.91 | 1.23 | 3.82 | > 100 | 3.58 | ~0.1 | 9.24
6 | Cc1cc2c(F)c(Oc3ncnc(N)c3C=NOCCCN3CCN(S(C)(=O)=O)CC3)ccc2[nH]1 [Cpd 22, 4-amino-6-(4-fluoro-2-methyl-1H-indol-5-yloxy)-pyrimidine-5-carbaldehyde O-[3-(4-methanesulfonyl-piperazin-1-yl)-propyl]-oxime] | – | > 100 | > 10 | 1.41 | > 10 | > 100 | 2.77 | 0.045 | > 10
7 | CC(=O)N1CCN(CCCON=Cc2c(N)ncnc2Oc2ccc3[nH]c(C)cc3c2F)CC1 [Cpd 23, 4-amino-6-(4-fluoro-2-methyl-1H-indol-5-yloxy)-pyrimidine-5-carbaldehyde O-[3-(4-acetyl-piperazin-1-yl)-propyl]-oxime] | – | > 100 | > 10 | 1.78 | > 10 | > 100 | 8.32 | 0.082 | > 10
8 | Cc1cc2c(F)c(Oc3ncnc(N)c3/C=N/O)ccc2[nH]1 [Cpd 27, 4-amino-6-(4-fluoro-2-methyl-1H-indol-5-yloxy)-pyrimidine-5-carbaldehyde oxime] | – | > 100 | 0.472 | ~10 | 0.492 | ~10 | > 10 | 0.033 | 1.14
9 | CNC(=O)n1c(C)cc2cc(Oc3ncnc(N)c3C=NOC)ccc21 [Cpd 49, 5-[6-amino-5-(methoxyimino-methyl)-pyrimidin-4-yloxy]-2-methyl-indole-1-carboxylic acid methylamide] | – | > 100 | 2.98 | ~100 | 1.39 | > 100 | ~10 | 0.001 | 3.14
10 | CNC(=O)Nc1ccc(Oc2ncnc(N)c2C=NOC)cc1Cl [Cpd 51, 1-{4-[6-amino-5-(methoxyimino-methyl)-pyrimidin-4-yloxy]-2-chloro-phenyl}-3-methyl-urea] | – | > 100 | 3.75 | > 100 | 4.09 | > 100 | ~1 | 0.025 | 4.21
11 | CCNC(=O)Nc1ccc(Oc2ncnc(N)c2C=NOC)cc1C [Cpd 66, 1-{4-[6-amino-5-(methoxyimino-methyl)-pyrimidin-4-yloxy]-2-methyl-phenyl}-3-ethyl-urea] | – | > 100 | > 100 | > 100 | > 100 | > 100 | > 10 | 0.18 | > 100
12 | CNC(=O)Nc1ccc(Oc2ncnc(N)c2C=NOC)cc1 [Cpd 68, 1-{4-[6-amino-5-(methoxyimino-methyl)-pyrimidin-4-yloxy]-phenyl}-3-methyl-urea] | – | > 100 | > 10 | > 100 | > 10 | > 10 | > 10 | 0.233 | > 10
13 | CCNC(=O)Nc1ccc(Oc2ncnc(N)c2C=NOC)cc1 [Cpd 69, 1-{4-[6-amino-5-(methoxyimino-methyl)-pyrimidin-4-yloxy]-phenyl}-3-ethyl-urea] | – | > 100 | > 10 | > 100 | > 10 | > 10 | > 10 | 0.142 | > 10
